From patent publication US6410041B1, “Culturing cells in presence of amphipathic weak bases and/or cations and multiple drug resistance inhibitor containing reserpine” (priority 1998, dated 2002) come the findings set out here.

Converted amounts (≈) assume the structure as drawn. “And” between values parts separate entries of the source, which are not always exact repeats. Identical values can stand only once. Like-named read-outs stand apart in the source and are kept apart here.

Assay [1] has as its system Staphylococcus aureus RN 4222 (WT). The assay is described as follows: MIC determination in wild type S. aureus. The assay is classed as cell-based. As to conditions: for effect of pH 9 on sensitivity / effectiveness: change of pH from 7 to 9. As for the experimental part:
(§1) Determination of minimal inhibitory concentrations (MICs). MICs were determined by serial two-fold dilution of antimicrobials in Mueller-Hinton broth containing chloramphenicol ([…]). […] Around 10^5 cells were inoculated in 1 ml of medium for the test. MICs were read after 18 hours of incubation at 37 C. with aeration. The 50% inhibitory concentration (IC50) was determined by growing cells in microtiter plate wells and reading the optical density after overnight growth at 650 nm.

Assay [2] relates to Staphylococcus aureus KLE 820 (norA−). In words: microbe, parasite or virus in culture. In kind it is cell-based.
Source text: Disruption of the norA gene. Chloramphenicol acetyltransferase (CAT) gene was isolated by digesting plasmid pLI50 (10) with Sau3A (New England Biolabs). The CAT gene was cloned into the BamHI site of plasmid pSP72 (Promega) to yield plasmid PCH22. Chromosomal DNA from S. aureus RN4220 was isolated according to the protocol of Qiagen, Inc. Part of the 1050 bp norA gene lacking a 80 bp N-terminus and a 20 bp C-terminus was PCR-amplified from chromosomal DNA using primer A:5′-[…]-[…] and primer B:5′-[…]. This fragment was cloned into the EcoRI/EcoRV site of PCH22 to yield plasmid PCH23. S. aureus were transformed by PCH23 using electroporation (11). Cells were plated on trypticase soy agar (TSA) with chloramphenicol. A transformant colony was picked after 24 hours of incubation at 37 C., regrown, plated on CAM medium and a large colony was picked for further work.
as §1

Assay [3] has as its system S. aureus. The assay is described as follows: MICs of antimicrobials with small molecule MDR inhibitor (I) and high pH. In kind it is cell-based, Staphylococcus aureus. As to conditions: for Potentiation factor (pH 7/(pH 9 + I)): pH 7 vs pH 9 + I. The protocol:
as §1

[4] abbreviates: Staphylococcus aureus, RN 4222 (WT), pH 7.2, read-out: MIC.
Setting [5] is: Staphylococcus aureus, pH 7.2, KLE 820 (norA−), pH 7.2.
[6] abbreviates: Staphylococcus aureus, pH 9, KLE 820 (norA−), pH 9.
The mark [7] stands for this setting: Staphylococcus aureus, pH 7, read-out: MIC.
Setting [8] is: Staphylococcus aureus, pH 9, read-out: MIC.

Take `COc1cc2c(cc1OC)-c1cc3ccc(OC)c(OC)c3c[n+]1CC2` [Palmatine]: the MIC was determined as 200 µg/mL in assay [1] (RN 4222 (WT), pH 7.2); 12.5 µg/mL in assay [1] (RN 4222 (WT), pH 9); 50 µg/mL in assay [2] (KLE 820 (norA−), pH 7.2); 0.78 µg/mL in assay [2] (KLE 820 (norA−), pH 9); 100 µg/mL in assay [3] (pH 7); 1.6 µg/mL in assay [3] (pH 7 + I (10 μg/mL)). Further, the MIC in assay [3] (pH 9) was determined as 25 µg/mL; in assay [3] (pH 9 + I) it was 0.08 µg/mL. In addition, the “substrate of NorA” value in assay [2] (based on comparison of MIC from wild type and norA−) is “substrates of NorA”. Besides, in assay [3] (cationic plant antimicrobial alkaloids), the “substrate of MDR pumps” value is “good substrates of MDR pumps”. Also, the “Potentiation factor (pH 7/(pH 9 + I))” value in assay [3] is 1,250.

Take `N=C(N)c1ccc(OCCCCCOc2ccc(C(=N)N)cc2)cc1` [Pentamidine]: the MIC in assay [1] (Staphylococcus aureus, pH 9) came out at 0.312 µg/mL (≈ 0.918 µM); in assay [1] (setting [4]) it was 10 µg/mL (≈ 29.4 µM); in assay [2] (setting [5]), 0.312 µg/mL (≈ 0.918 µM); in assay [2] (setting [6]), 0.0097 µg/mL (≈ 0.0285 µM); in assay [2] (Staphylococcus aureus, pH 9, pH 9 and norA mutation) it was 0.01 µg/mL (≈ 0.0294 µM); in assay [3] (setting [7]), 10 µg/mL (≈ 29.4 µM). The MIC in assay [3] (setting [8]) amounted to 0.3 µg/mL (≈ 0.881 µM); in assay [3] (pH 7 + I (10 μg/mL)) it was 0.33 µg/mL; in assay [3] (pH 9 + I) it was 0.02 µg/mL. Moreover, the “effect of pH 9 on sensitivity / effectiveness” value in assay [1] is recorded as “significantly increased the effectiveness”. In assay [2] (norA− at pH 9 vs wild type at neutral pH), the “increase in sensitivity, pH 9 combined with norA mutation” value is on record as 1,000 fold. Moreover, the “increase in sensitivity by norA mutation” value in assay [2] (norA− vs wild type) is 30 fold and 33 fold. The “Potentiation factor (pH 7/(pH 9 + I))” value in assay [3] was 500.

Consider `[H]/N=C(\N/C(=N/[H])NCCCCCCNC(=N)NC(=N)Nc1ccc(Cl)cc1)Nc1ccc(Cl)cc1` [Chlorhexidine], for which the MIC in assay [1] (setting [4]) is 0.5 µg/mL (≈ 0.989 µM); in assay [1] (Staphylococcus aureus, RN 4222 (WT), pH 9, read-out: MIC), 0.06 µg/mL (≈ 0.119 µM); in assay [2] (setting [5]), 0.125 µg/mL (≈ 0.247 µM); in assay [2] (setting [6]) it was 0.0156 µg/mL (≈ 0.0309 µM); in assay [3] (setting [7]) it was 0.5 µg/mL (≈ 0.989 µM); in assay [3] (setting [8]), 0.12 µg/mL (≈ 0.237 µM). The MIC in assay [3] (pH 7 + I (10 μg/mL)) came to 0.06 µg/mL; in assay [3] (pH 9 + I), 0.0037 µg/mL. In addition, the “effect of pH 9 on sensitivity / effectiveness” value in assay [1] is reported as “significantly increased the effectiveness”. The “Sensitivity norA− at pH 9 vs. WT at pH 7.2” value in assay [2] (norA− at pH 9 vs. WT at pH 7.2) is on record as 32. Moreover, in assay [3] (high pH combined with MDR inhibitor / MDR inactivation), the “potentiation by high pH and MDR inhibitor” value is on record as 133 fold. The Ratio in assay [3] (pH 7 vs pH 7 + I) is listed as 8.3; in assay [3] (pH 9 vs pH 9 + I) it was 32. Also, in assay [3], the “Potentiation factor (pH 7/(pH 9 + I))” value is reported as 133.
